How the values were obtained:
PCP-treated rats = assay: novel object recognition test in sub-chronic PCP treated rats; format: in vivo, rat
Protocol: Female hooded-Lister rats were used for this experiment. Rats were housed in groups of 5 under standard laboratory conditions under a 12 hr light: dark cycle, lights on at 0700 hr. Testing was carried out in the light phase.
Rats were randomly assigned to two treatment groups and treated with vehicle, n=20 (distilled water, i.p.) or Phencyclidine hydrochloride (PCP), n=100 (2 mg/kg, i.p. twice daily for 7-days). PCP was dissolved in distilled water. This was followed by a 7-day wash out period before the rats were tested following acute treatment with CBDV, risperidone or vehicle.
Risperidone (0.1 mg/kg) was dissolved in a minimum volume of acetic acid, made up to volume with distilled water and pH adjusted to 6 with 0.1M NaOH and administered via the i.p. route in a volume of 1 ml/kg, 60 min prior to testing.
CBDV at 2, 10 or 20 mg/kg was dissolved in 2:1:17 (Ethanol:Cremofor:Saline 0.9%) and administered via the i.p. route in a volume of 5 ml/kg, 60 min prior to testing.
Rats were allowed to habituate to the empty test box and the behavioural test room environment for 1 h on day 1. Prior to behavioural testing on day 2 rats are given a further 3 min habituation.
Following the 3 min habituation period, the rats are given two 3 min trials (T1 and T2) which are separated by a 1 min inter-trial interval in the home cage during which the objects are changed. Behaviour in all trials was recorded on video for subsequent blind scoring.
In this trial, the animals are allowed to explore two identical objects (A1 and A2) for 3 min.
In this trial, the animals explore a familiar object (A) from T1 and a novel object (B) for 3 min. The familiar object presented during T2 is a duplicate of the object presented in T1 in order to avoid any olfactory trails.
The object exploration is defined by animals licking, sniffing or touching the object with the forepaws whilst sniffing, but not leaning against, turning around, standing or sitting on the object. The exploration time (s) of each object (A, B, familiar and novel) in each trial are recorded using two stopwatches and the following factors are calculated: • Total exploration time of both objects in the acquisition trial (s). • Total exploration time of both objects in the retention trial (s). • Habituation of exploratory activity includes the exploration time, as measured by the number of lines crossed, for both the trials. • Discrimination index (DI), which is calculated as shown below: […]

VPA-exposed rats = assay: sociability and preference for social novelty, 3-chamber apparatus, prenatal VPA model; format: in vivo, rat
Protocol: Pregnant Sprague-Dawley rats (Charles River, Calco, Italy), received a single intraperitoneal injection of 500 mg/kg sodium valproate on the 12.5 day after conception, and control females were injected with physiological saline at the same time. Sodium valproate (Sigma Aldrich, Milan, IT) was dissolved in saline at a concentration of 250 mg/ml.
CBDV was dissolved in ethanol, cremophor and saline (1:1:18). Symptomatic treatment with CBDV at doses of 0.2, 2, 20, and 100 mg/kg/day i.p. was performed starting from PND 34 (early adolescence) till 56 (early adulthood), both in male and female offspring of dams injected with VPA 500 mg/kg (or vehicle) on day 12.5 after conception. At PND 56, a series of behavioural tests was performed in order to assess the effect of chronic CBDV on sociability, social novelty, short-term memory, locomotion and stereotyped/repetitive behaviours.
Sociability and preference for social novelty: These behaviours were investigated in a 3-chamber apparatus which allows for the measurement of social approach and social preference. In brief, animals were placed into a novel arena (80 cm×31.5 cm) composed of three communicating chambers separated by Perspex walls with central openings allowing access to all chambers for 5 min.
Following this acclimatisation period, animals were briefly confined to the central chamber while an unfamiliar rat confined in a small wire cage was placed in one of the outer chambers. An identical empty wire cage was placed in the other chamber. The unfamiliar rat was randomly assigned to either the right or left chamber of the arena. The test animal was then allowed to explore the arena/chambers for a further 5 min. Time spent engaging in investigatory behaviour with the rat was evaluated with the aid of Anymaze program (Ugo Basile, Italy) in order to examine social approach.
To investigate the preference for social novelty, a novel unfamiliar rat was then placed in the empty cage and the test animal was then allowed to explore the arena/chambers for a further 5 min. Time spent engaging in investigatory behaviour with the novel unfamiliar rat was evaluated with the aid of Anymaze program (Ugo Basile, Italy) in order to examine preference for social novelty.

Ube3am-/p+ (AS) mice = assay: clasping test in Angelman syndrome mice; format: in vivo, mouse; conditions: chronic treatment (30 days), 20 mg/kg i.p., 10 weeks of age, vs AS vehicle
Protocol: Heterozygous mice with maternal deficiency of Ube3A (Ube3am−/p+) and wild type (Ube3am+/p+) were purchased from The Jackson Laboratory (Jackson code: B6.12957-Ube3a tm1Alb/J) and maintained in a C57BL/6 background.
Drugs were dissolved in 1:1:18 ethanol:cremophor:0.9% saline, for intraperitoneal (i.p.) administration. Drug treatment was performed daily for 35 days. CBDV was administered at 20 mg/kg.
Clasping: The clasping test assesses ataxia in mice. Mice were suspended by the base of the tail and their behaviours were recorded for 30 seconds. The time for which the mice clasped their hind limbs was recorded. The time was then scored as follows: 4, 15-30 s, 3, 10-15 s, 2, 5-10 s, 1, 0-5 s and 0.0 s

Fmr1 KO mice = assay: novel object recognition task in Fmr1 KO mice; format: in vivo, mouse; conditions: for discrimination index level: chronic
Protocol: Fmr1 KO mice and wild type mice were obtained and housed four per cage in a temperature of 21° C.±1° C. and humidity of 55%±10% controlled environment. Food and water were available ad libitum. All experiments were performed during the light phase of a 12 hour light/dark cycle (08:00 to 20:00). Animals were handled for one week before the start of experiments. All behavioural tests were performed by researchers blind to the different experimental groups.
On day one mice were habituated for 10 minutes to the empty V-maze in which the task was to be performed. On the second day the mice went back to the maze for 10 minutes which contained two identical objects at the end of each corridor in the V-maze.
The following day the mice were placed again in the same maze for a further 10 minutes but one of the familiar objects was replaced for a novel object. The total time spent exploring the novel and familiar object was recorded. A discrimination index was calculated as the difference between the time spent exploring the novel and familiar object divided by the total time exploring the two objects. A high discrimination index (0.3-0.5) is considered to reflect memory retention for the familiar object.
Adult mice (10-15 weeks old) were treated either acutely with one dose of CBDV on […] or were treated once daily with CBDV for 7 consecutive days. Mice were evaluated in the novel object recognition task after the first and sixth day of CBDV administration. Doses of CBDV used were 2, 10, 20, 100 and 200 mg/kg.

C=C(C)[C@@H]1CCC(C)=C[C@H]1c1c(O)cc(CCC)cc1O [CBDV, Cannabidivarin]
discrimination index (DI) (PCP-treated rats; PCP rats, 10 and 20 mg/kg): statistically significant increase
preference between two identical objects, Trial 1 (acquisition) (PCP-treated rats; PCP rats, CBDV 2, 10 or 20 mg/kg i.p., risperidone 0.1 mg/kg i.p., 60 min prior to testing): no real preference
cognitive dysfunction (discrimination between familiar and novel objects, Trial 2) (PCP-treated rats; PCP treated rats, CBDV 10 and 20 mg/kg i.p.): reverse
deficit in social preference (VPA-exposed rats; 20 mg/kg and 100 mg/kg): reversed
restoration of social novelty preference (VPA-exposed rats; 20 mg/kg/day i.p. PND 34-56, p<0.001 in males, p<0.01 in females): statistically significant effect
reduction of preference index in VPA-CBDV animals compared to controls (VPA-exposed rats; VPA alone about 48%): about 13%
impairment in sociability (VPA-exposed rats; all doses (0.2, 2, 20, 100 mg/kg/day i.p.)): significantly reduced
clasping duration (Ube3am-/p+ (AS) mice): significantly reduced
increase of discrimination index over vehicle treated mice (Fmr1 KO mice; acute treatment, 2 mg/kg): not significant
discrimination index (Fmr1 KO mice; acute treatment, any of the doses): no effect
discrimination index over vehicle treated knockout mice (Fmr1 KO mice; chronic (once daily for 7 days), 20 and 100 mg/kg): statistically significant increase
discrimination index level (Fmr1 KO mice; 20 mg/kg): over 0.3
discrimination index level (Fmr1 KO mice; 100 mg/kg): over 0.3

— patent publication US20190070128A1, “USE OF CANNABIDIVARIN IN THE TREATMENT OF AUTISM SPECTRUM DISORDER, ASSOCIATED DISORDERS AND SCHIZOPHRENIA” (GW Research Limited, priority 2016, published 2019)
